# Reference: patent US8299111B2, “Compounds which modulate the CB2 receptor” (Boehringer Ingelheim International GmbH, priority 2006, dated 2012)
# Biological target: T1, human CB2R (Homo sapiens, UniProt P34972)
# T1 construct: host or cells: CHO cells
# Assay: CB2R mediated modulation of cAMP synthesis
# Assay type: cell-based
# Details: found through the use of the above described assays (binding and cAMP); CHO cells expressing human CB2R, forskolin-stimulated cAMP
# Experimental: B. CB2R Mediated Modulation of cAMP Synthesis:
# CHO cells expressing human CB2R (Euroscreen) were plated at a density of 5000 cells per well in 384 well plates and incubated overnight at 37° C. After removing the media, the cells were treated with test compounds diluted in stimulation buffer containing 1 mM IBMX, 0.25% BSA and 10 uM Forskolin. The assay was incubated for 30 minutes at 37° C. Cells were lysed and the cAMP concentration was measured using DiscoverX -XS cAMP kit, following the manufacturer's protocol. In this setting, agonists will decrease forskolin induced production of cAMP while inverse agonists will further increase forskolin induced production of cAMP. EC50 of agonists were calculated as follows. The maximal amount of cAMP produced by forskolin compared to the level of cAMP inhibited by 1 uM CP55940 is defined as 100%. The EC50 value of each test compound was determined as the concentration at which 50% of the forskolin-stimulated cAMP synthesis was inhibited. Data was analyzed using a four-parameter logistic model. (Model 205 of XLfit 4.0).
# T1 sequence (P34972 whole entry): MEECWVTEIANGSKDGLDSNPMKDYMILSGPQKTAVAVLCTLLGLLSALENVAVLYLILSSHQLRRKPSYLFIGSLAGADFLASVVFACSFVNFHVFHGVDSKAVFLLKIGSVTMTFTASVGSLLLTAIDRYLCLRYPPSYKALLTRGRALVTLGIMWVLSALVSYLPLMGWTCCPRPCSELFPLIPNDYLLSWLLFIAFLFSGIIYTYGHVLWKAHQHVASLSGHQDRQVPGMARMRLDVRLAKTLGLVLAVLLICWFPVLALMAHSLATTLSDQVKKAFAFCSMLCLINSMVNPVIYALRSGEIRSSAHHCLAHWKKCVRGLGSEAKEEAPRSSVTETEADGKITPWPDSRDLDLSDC
row,SMILES,agonistic activity
1,"CC(C)(C(=O)Nc1nc(C2CC2)cs1)S(=O)(=O)c1ccc(S(C)(=O)=O)cc1 [N-(4-cyclopropyl-1,3-thiazol-2-yl)-2-methyl-2-{[4-(methylsulfonyl)phenyl]sulfonyl}propanamide]",agonistic activity
2,"CC(C)(C(=O)Nc1cc2ccccc2cn1)S(=O)(=O)c1ccc(F)cc1F [2-(2,4-Difluoro-benzenesulfonyl)-N-isoquinolin-3-yl-2-methyl-propionamide]",agonistic activity
3,"Cc1nc(NC(=O)C(C)(C)S(=O)(=O)c2ccc(Cl)cc2)sc1C [2-(4-Chloro-benzenesulfonyl)-N-(4,5-dimethyl-thiazol-2-yl)-2-methyl-propionamide]",agonistic activity
4,"CC(C)(C(=O)Nc1nc(-c2ccc(Cl)cc2)cs1)S(=O)(=O)c1ccc(F)cc1F [N-[4-(4-Chloro-phenyl)-thiazol-2-yl]-2-(2,4-difluoro-benzenesulfonyl)-2-methyl-propionamide]",agonistic activity
5,CC(C)(C(=O)Nc1ccc(C(F)(F)F)cc1)S(=O)(=O)c1ccc(Cl)cc1 [2-(4-Chloro-benzenesulfonyl)-2-methyl-N-(4-trifluoromethyl-phenyl)-propionamide],agonistic activity
6,CC(C)(C(=O)Nc1ccc(C(F)(F)F)cn1)S(=O)(=O)c1ccccc1F [2-(2-Fluoro-benzenesulfonyl)-2-methyl-N-(5-trifluoromethyl-pyridin-2-yl)-propionamide],agonistic activity
7,CC(C)(C(=O)Nc1cccc(C(F)(F)F)n1)S(=O)(=O)c1ccc(F)cc1 [2-(4-Fluoro-benzenesulfonyl)-2-methyl-N-(6-trifluoromethyl-pyridin-2-yl)-propionamide],agonistic activity
8,CC(C)(C(=O)Nc1ccc2ccccc2c1)S(=O)(=O)c1ccc(Cl)cc1 [2-(4-Chloro-benzenesulfonyl)-2-methyl-N-naphthalen-2-yl-propionamide],agonistic activity
9,CC(C)(C)c1cc(NC(=O)C(C)(C)S(=O)(=O)c2ccc(C(F)(F)F)cc2)no1 [N-(5-tert-Butyl-isoxazol-3-yl)-2-methyl-2-(4-trifluoromethyl-benzenesulfonyl)-propionamide],agonistic activity
10,"CC(C)(C(=O)Nc1nc(-c2ccccn2)cs1)S(=O)(=O)c1ccc(F)cc1F [2-(2,4-Difluoro-benzenesulfonyl)-2-methyl-N-(4-pyridin-2-yl-thiazol-2-yl)-propionamide]",agonistic activity
11,CC(C)(C)c1cnc(NC(=O)C2(S(=O)(=O)c3ccc(C(F)(F)F)cc3)CCC2)s1 [1-(4-Trifluoromethyl-benzenesulfonyl)-cyclobutanecarboxylic acid (5-tert-butyl-thiazol-2-yl)-amide],agonistic activity
12,"CC(C)(C)c1cc(NC(=O)C(C)(C)S(=O)(=O)c2ccc(Cl)c(Cl)c2)no1 [N-(5-tert-Butyl-isoxazol-3-yl)-2-(3,4-dichloro-benzenesulfonyl)-2-methyl-propionamide]",agonistic activity
13,CC(C)(C(=O)Nc1cccc(C(F)(F)F)n1)S(=O)(=O)c1ccc(Cl)cc1F [2-(4-Chloro-2-fluoro-benzenesulfonyl)-2-methyl-N-(6-trifluoromethyl-pyridin-2-yl)-propionamide],agonistic activity
14,"CC(C)(C)Cc1cc(NC(=O)C(C)(C)S(=O)(=O)c2ccc(C(F)(F)F)nc2)on1 [N-[3-(2,2-dimethylpropyl)isoxazol-5-yl]-2-methyl-2-{[6-(trifluoromethyl)pyridin-3-yl]sulfonyl}propanamide]",agonistic activity
15,CC(C)(C)c1ccc(NC(=O)C(C)(C)S(=O)(=O)c2ccc(Cl)cc2F)cc1 [N-(4-tert-butylphenyl)-2-[(4-chloro-2-fluorophenyl)sulfonyl]-2-methylpropanamide],agonistic activity
16,COc1ccc(S(=O)(=O)C(C)(C)C(=O)Nc2cccc(C(F)(F)F)n2)cc1F [2-(3-Fluoro-4-methoxy-benzenesulfonyl)-2-methyl-N-(6-trifluoromethyl-pyridin-2-yl)-propionamide],agonistic activity
17,CC(C)(C)c1cc(NC(=O)C2(S(=O)(=O)c3ccc(Cl)cc3)CC2)no1 [1-(4-Chloro-benzenesulfonyl)-cyclopropanecarboxylic acid (5-tert-butyl-isoxazol-3-yl)-amide],agonistic activity

# Now from value to compound:
row,agonistic activity,SMILES
1,agonistic activity,CC(C)(C)c1cc(NC(=O)C(C)(C)S(=O)(=O)c2ccc(S(C)(=O)=O)cc2)no1 [N-(5-tert-Butyl-isoxazol-3-yl)-2-(4-methanesulfonyl-benzenesulfonyl)-2-methyl-propionamide]
2,agonistic activity,CC(C)(C)c1csc(NC(=O)C(C)(C)S(=O)(=O)c2ccc(Cl)cc2)n1 [N-(4-tert-Butyl-thiazol-2-yl)-2-(4-chloro-benzenesulfonyl)-2-methyl-propionamide]
3,agonistic activity,Cc1noc(NC(=O)C(C)(C)S(=O)(=O)c2ccc(Cl)cc2)c1-c1ccccc1 [2-(4-Chloro-benzenesulfonyl)-2-methyl-N-(3-methyl-4-phenyl-isoxazol-5-yl)-propionamide]
4,agonistic activity,Cc1ccc(S(=O)(=O)C(C)(C)C(=O)Nc2cccc(C(F)(F)F)n2)cc1F [2-(3-Fluoro-4-methyl-benzenesulfonyl)-2-methyl-N-(6-trifluoromethyl-pyridin-2-yl)-propionamide]
5,agonistic activity,CC(C)C(C(=O)Nc1nc(C(C)(C)C)cs1)S(=O)(=O)c1ccc(C(F)(F)F)cc1 (stereo not drawn) [N-(4-tert-Butyl-thiazol-2-yl)-3-methyl-2-(4-trifluoromethyl-benzenesulfonyl)-butyramide]
6,agonistic activity,"CC(C)(C(=O)Nc1nc(-c2ccccc2)c(-c2ccccc2)s1)S(=O)(=O)c1ccc(Cl)cc1 [2-(4-Chloro-benzenesulfonyl)-N-(4,5-diphenyl-thiazol-2-yl)-2-methyl-propionamide]"
7,agonistic activity,CC(C)(C)c1ccc(NC(=O)C(C)(C)S(=O)(=O)c2ccc(C(F)(F)F)nc2)cc1 [N-(4-tert-butylphenyl)-2-methyl-2-{[6-(trifluoromethyl)pyridin-3-yl]sulfonyl}propanamide]
8,agonistic activity,CC(C)(C)c1csc(NC(=O)C(C)(C)S(=O)(=O)c2ccc(N3CCC3)nc2)n1 [2-(6-Azetidin-1-yl-pyridine-3-sulfonyl)-N-(4-tert-butyl-thiazol-2-yl)-2-methyl-propionamide]
9,agonistic activity,"CC(C)(C(=O)Nc1nc(C(F)(F)F)cs1)S(=O)(=O)c1ccc(Cl)cc1F [2-[(4-chloro-2-fluorophenyl)sulfonyl]-2-methyl-N-[4-(trifluoromethyl)-1,3-thiazol-2-yl]propanamide]"
10,agonistic activity,"CC(C)(C(=O)Nc1cccc(C(F)(F)F)n1)S(=O)(=O)c1ccc(F)cc1F [2-[(2,4-difluorophenyl)sulfonyl]-2-methyl-N-[6-(trifluoromethyl)pyridin-2-yl]propanamide]"
11,agonistic activity,Cc1ccc(S(=O)(=O)C(C)(C)C(=O)Nc2cc(C(C)(C)C)on2)c(F)c1 [N-(5-tert-Butyl-isoxazol-3-yl)-2-(2-fluoro-4-methyl-benzenesulfonyl)-2-methyl-propionamide]
12,agonistic activity,"CC(C)(C(=O)Nc1nc(-c2ccc(F)c(F)c2)cs1)S(=O)(=O)c1ccc(Cl)cc1 [2-(4-Chloro-benzenesulfonyl)-N-[4-(3,4-difluoro-phenyl)-thiazol-2-yl]-2-methyl-propionamide]"
13,agonistic activity,CC(C)(C(=O)Nc1cccc(C(F)(F)F)n1)S(=O)(=O)c1ccccc1 [2-Benzenesulfonyl-2-methyl-N-(6-trifluoromethyl-pyridin-2-yl)-propionamide]
14,agonistic activity,"CC(C)(C(=O)Nc1nc(C(F)(F)F)cs1)S(=O)(=O)c1ccc(S(C)(=O)=O)cc1 [2-methyl-2-{[4-(methylsulfonyl)phenyl]sulfonyl}-N-[4-(trifluoromethyl)-1,3-thiazol-2-yl]propanamide]"
15,agonistic activity,Cc1nc(NC(=O)C(C)(C)S(=O)(=O)c2ccc3ccccc3c2)sc1C(C)(C)C [N-(5-tert-Butyl-4-methyl-thiazol-2-yl)-2-methyl-2-(naphthalene-2-sulfonyl)-propionamide]
16,agonistic activity,"Cc1sc(NC(=O)C(C)(C)S(=O)(=O)c2ccc(S(C)(=O)=O)cc2)nc1-c1ccccc1 [2-methyl-N-(5-methyl-4-phenyl-1,3-thiazol-2-yl)-2-{[4-(methylsulfonyl)phenyl]sulfonyl}propanamide]"
17,agonistic activity,"CC(C)(C)c1nnc(NC(=O)C(C)(C)S(=O)(=O)c2ccc(Cl)cc2)s1 [N-(5-tert-Butyl-[1,3,4]thiadiazol-2-yl)-2-(4-chloro-benzenesulfonyl)-2-methyl-propionamide]"
18,agonistic activity,Cc1ccc(S(=O)(=O)C(C)(C)C(=O)Nc2cccc(C(F)(F)F)n2)cn1 [2-Methyl-2-(6-methyl-pyridine-3-sulfonyl)-N-(6-trifluoromethyl-pyridin-2-yl)-propionamide]
19,agonistic activity,CC(C)(C(=O)Nc1ccccc1Cl)S(=O)(=O)c1ccc(Cl)cc1 [2-(4-Chloro-benzenesulfonyl)-N-(2-chloro-phenyl)-2-methyl-propionamide]
